# Measurements reported in ChEMBL document CHEMBL4665789, “Discovery of Novel pERK1/2- or β-Arrestin-Preferring 5-HT Receptor-Biased Agonists: Diversified Therapeutic-like versus Side Effect Profile” (J Med Chem, 2020).
# Activity calls are given as the source filed them. No cut-off for these calls is given here.
# Assays:
# [1] = molecular target: T1, 5-hydroxytryptamine receptor 1A (Homo sapiens, UniProt P08908); assay: Displacement of [3H]8-OH-DPAT from human 5-HT1A receptor stably expressed in CHO-K1 cell membranes measured after 60 mins by Microbeta2 scintillation counting method
# T1 sequence (P08908 whole entry): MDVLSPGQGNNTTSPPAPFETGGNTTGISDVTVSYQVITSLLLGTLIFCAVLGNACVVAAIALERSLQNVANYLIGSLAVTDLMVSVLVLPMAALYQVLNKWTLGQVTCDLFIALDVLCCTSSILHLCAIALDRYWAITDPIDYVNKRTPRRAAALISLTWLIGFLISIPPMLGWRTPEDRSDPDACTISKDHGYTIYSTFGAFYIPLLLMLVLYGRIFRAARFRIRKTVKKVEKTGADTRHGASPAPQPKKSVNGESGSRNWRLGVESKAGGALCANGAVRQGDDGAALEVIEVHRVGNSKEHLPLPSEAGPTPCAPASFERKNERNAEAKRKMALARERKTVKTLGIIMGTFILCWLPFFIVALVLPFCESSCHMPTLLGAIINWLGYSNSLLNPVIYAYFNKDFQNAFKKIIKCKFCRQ
# [2] = molecular target: T2, Adrenergic receptor alpha-1 (Rattus norvegicus, UniProt P15823+P23944+P43140); assay: Displacement of [3H]prazosin from alpha1 adrenergic receptor in rat cortex membranes measured after 30 mins by Microbeta2 scintillation counting method; assay type: cell membranes
# T2 sequence (P15823 whole entry): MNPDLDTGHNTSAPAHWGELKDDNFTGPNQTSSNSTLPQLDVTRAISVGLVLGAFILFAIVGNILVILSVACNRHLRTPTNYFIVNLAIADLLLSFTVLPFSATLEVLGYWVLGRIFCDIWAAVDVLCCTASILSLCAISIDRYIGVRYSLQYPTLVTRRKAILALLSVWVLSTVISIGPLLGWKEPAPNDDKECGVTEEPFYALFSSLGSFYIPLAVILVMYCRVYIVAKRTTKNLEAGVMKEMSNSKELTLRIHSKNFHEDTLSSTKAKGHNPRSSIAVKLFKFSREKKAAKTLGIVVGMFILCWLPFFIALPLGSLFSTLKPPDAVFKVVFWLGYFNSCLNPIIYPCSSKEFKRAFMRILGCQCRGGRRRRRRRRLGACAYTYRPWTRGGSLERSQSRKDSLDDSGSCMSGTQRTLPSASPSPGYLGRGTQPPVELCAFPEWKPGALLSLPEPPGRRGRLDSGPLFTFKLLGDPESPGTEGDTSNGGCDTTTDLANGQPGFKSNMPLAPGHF
# T2 sequence (P23944 whole entry): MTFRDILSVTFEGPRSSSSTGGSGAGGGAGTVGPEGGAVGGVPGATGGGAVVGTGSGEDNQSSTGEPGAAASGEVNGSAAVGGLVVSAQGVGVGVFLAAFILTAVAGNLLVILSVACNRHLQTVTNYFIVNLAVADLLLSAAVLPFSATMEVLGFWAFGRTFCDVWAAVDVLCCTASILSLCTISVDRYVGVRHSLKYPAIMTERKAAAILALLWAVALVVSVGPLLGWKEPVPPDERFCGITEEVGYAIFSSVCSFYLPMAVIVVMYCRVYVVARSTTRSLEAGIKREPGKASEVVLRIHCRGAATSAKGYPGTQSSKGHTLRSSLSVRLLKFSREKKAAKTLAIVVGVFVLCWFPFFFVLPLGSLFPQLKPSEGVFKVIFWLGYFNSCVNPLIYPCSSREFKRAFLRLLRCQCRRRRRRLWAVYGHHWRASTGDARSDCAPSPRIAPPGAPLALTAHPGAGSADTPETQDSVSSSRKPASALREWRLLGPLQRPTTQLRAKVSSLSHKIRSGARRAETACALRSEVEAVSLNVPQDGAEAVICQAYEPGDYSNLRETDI
# T2 sequence (P43140 whole entry): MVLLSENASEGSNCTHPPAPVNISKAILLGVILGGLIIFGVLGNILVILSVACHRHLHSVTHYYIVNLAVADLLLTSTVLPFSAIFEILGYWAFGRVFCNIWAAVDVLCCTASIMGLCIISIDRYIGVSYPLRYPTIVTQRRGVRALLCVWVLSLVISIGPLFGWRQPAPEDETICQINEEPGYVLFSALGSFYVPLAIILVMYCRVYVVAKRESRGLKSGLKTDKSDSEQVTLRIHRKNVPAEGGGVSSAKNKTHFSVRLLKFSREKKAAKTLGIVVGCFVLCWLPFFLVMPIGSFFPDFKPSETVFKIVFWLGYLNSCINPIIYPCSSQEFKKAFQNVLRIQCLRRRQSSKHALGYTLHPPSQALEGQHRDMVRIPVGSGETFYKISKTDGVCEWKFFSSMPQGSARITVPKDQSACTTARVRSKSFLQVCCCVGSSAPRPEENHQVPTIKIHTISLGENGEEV
# [3] = molecular target: T1, 5-hydroxytryptamine receptor 1A; assay: Biased agonist activity at human 5-HT1A receptor stably expressed in CHO-K1 cells assessed as increase in ERK1/2 phosphorylation after 15 mins by Alphalisa assay
# [4] = molecular target: D(2) dopamine receptor (Homo sapiens, UniProt P14416); assay: Displacement of [3H]methylspiperone from human D2 receptor stably expressed in CHO-K1 cell membranes measured after 60 mins by Microbeta2 scintillation counting method
# Sequence of D(2) dopamine receptor (P14416 whole entry): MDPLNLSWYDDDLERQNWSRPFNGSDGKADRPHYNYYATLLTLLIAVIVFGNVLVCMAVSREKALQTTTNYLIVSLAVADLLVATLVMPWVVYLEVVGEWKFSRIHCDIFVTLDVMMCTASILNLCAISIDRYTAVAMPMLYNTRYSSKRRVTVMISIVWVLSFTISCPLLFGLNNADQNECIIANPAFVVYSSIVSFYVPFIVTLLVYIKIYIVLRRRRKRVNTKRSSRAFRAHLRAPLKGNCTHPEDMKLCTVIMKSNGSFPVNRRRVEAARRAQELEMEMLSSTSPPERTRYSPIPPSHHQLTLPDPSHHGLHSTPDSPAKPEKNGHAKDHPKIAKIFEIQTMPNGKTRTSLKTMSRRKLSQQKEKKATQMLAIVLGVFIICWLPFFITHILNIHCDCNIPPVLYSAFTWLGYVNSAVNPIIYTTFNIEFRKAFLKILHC
# [5] = molecular target: T1, 5-hydroxytryptamine receptor 1A; assay: Biased agonist activity at human 5-HT1A receptor stably expressed in CHO-K1 cells co-expressing Galpha16/GPCR assessed as increase in calcium mobilization measured for 30 secs in presence of coelenterazine by aequorin-reporter gene based luminescence assay; assay type: functional, cell-based
# [6] = molecular target: T1, 5-hydroxytryptamine receptor 1A; assay: Biased agonist activity at human 5-HT1A receptor stably expressed in CHO-K1 cells assessed as inhibition of forskolin-induced cAMP accumulation after 40 mins by LANCE Ultra cAMP kit-based TR-FRET assay; assay type: functional, cell-based
# [7] = molecular target: T1, 5-hydroxytryptamine receptor 1A; assay: Biased agonist activity at Gal4-VP16 transcription factor linked human 5-HT1A receptor expressed in human U2OS cells assessed as induction of beta-arrestin2 recruitment measured after 5 hrs by Tango assay; assay type: cell-based
# [8] = Hepatotoxicity in human HepG2 cells assessed as concentration required to show 50% cell viability measured after 72 hrs by celltiter 96 aqueous non-Radioactive cell proliferation assay; assay type: toxicity, cell-based; settings: read-out: Activity
# [9] = Stability in rat liver microsomes assessed as parent compound remaining at 50 uM preincubated for 5 mins followed by NADPH addition and measured after 2 hrs by LC-MS analysis; assay type: ADME, Microsome; settings: time 125 min, read-out: Stabilty
# [10] = Permeability of the compound at 100 uM measured after 40 mins by PAMPA; assay type: ADME; settings: read-out: permeability
# [11] = Drug uptake in Wistar rat serum at 0.04 to […], po by HPLC analysis; assay type: ADME, organism-based; settings: in vivo, dose 0.04-0.63 mg/kg
# [12] = Toxicity in po dosed Wistar rat assessed as induction of lower lip retraction at 4 times MED treated for 10 mins; assay type: organism-based; settings: in vivo
# [13] = test system: Rattus norvegicus; assay: Antidepressant activity in po dosed Wistar rat assessed as reduction in immobility time treated 60 mins prior to testing and measured during the 5 min test period by Porsolt-forced swim test; assay type: functional; settings: 1 h, read-out: MED
# [14] = Drug uptake in Wistar rat brain at 0.04 to […], po by HPLC analysis; assay type: ADME, organism-based; settings: in vivo, dose 0.04-0.63 mg/kg
# [15] = Drug uptake in Wistar rat brain at 0.31 to 1.25 mg/kg, po by HPLC analysis; assay type: ADME, organism-based; settings: in vivo, dose 0.31-1.25 mg/kg
# [16] = Toxicity in po dosed Wistar rat assessed as induction of lower lip retraction at 2 times MED treated for 10 mins; assay type: organism-based; settings: in vivo
# [17] = Drug uptake in Wistar rat serum at 0.31 to 1.25 mg/kg, po by HPLC analysis; assay type: ADME, organism-based; settings: in vivo, dose 0.31-1.25 mg/kg
# [18] = test system: Rattus norvegicus; assay: Antidepressant activity in Wistar rat assessed as reduction in immobility time at […], po treated 60 mins prior to testing and measured during the 5 min test period in presence of WAY100635 by Porsolt-forced swim test; assay type: functional, organism-based
smiles,measurement,setting,value
O=C(c1ccc(Cl)c(Cl)c1)N1CCC(F)(CNCCOc2cccc(F)c2)CC1,Ki,[1],0.0204 nM
same,pKi,[2],6.2
same,EC50,[3],20 nM
same,Ki,[4],> 1000 nM
same,EC50,[5],646 nM
same,EC50,[6],39.8 nM
same,EC50,[7],617 nM
N#CC(C#N)=NNc1cccc(Cl)c1 [CARBONYL CYANIDE M-CHLOROPHENYLHYDRAZONE],CC50 at 72 h,[8],< 10000 nM
COc1ccc(OCCNCC2(F)CCN(C(=O)c3ccc(Cl)c(Cl)c3)CC2)cc1,pKi,[2],< 6
O=C(c1ccc(F)c(Cl)c1)N1CCC(F)(CNCCOc2ccccc2)CC1,"remaining at 2 h, 50 µM",[9],54%
same,"Papp at 40 min, 100 µM",[10],8.6 ×10⁻⁶ cm/s
same,CC50 at 72 h,[8],> 50000 nM
CN(C)c1cccc(OCCNCC2(F)CCN(C(=O)c3ccc(F)c(Cl)c3)CC2)c1,pKi,[2],< 6
O=C(c1ccc(F)c(Cl)c1)N1CCC(F)(CNCCOc2cccc3c2CCN3)CC1,Ki,[1],0.0447 nM
same,pKi,[2],6.36
same,EC50,[3],0.00363 nM
same,Ki,[4],> 1000 nM
same,EC50,[5],3.55 nM
same,EC50,[6],0.0132 nM
same,EC50,[7],0.00513 nM
O=C(c1ccc(F)c(Cl)c1)N1CCC(F)(CNCCOc2ccccc2F)CC1,pKi,[2],< 6
O=C(c1ccc(F)c(Cl)c1)N1CCC(F)(CNCCOc2ccccn2)CC1,"remaining at 2 h, 50 µM",[9],54%
CC1(C)Cc2cccc(OCCNCC3(F)CCN(C(=O)c4ccc(F)c(Cl)c4)CC3)c2O1,pKi,[2],7.76
O=C(c1ccc(Cl)c(Cl)c1)N1CCC(F)(CNCCOc2cccc(Cl)c2)CC1,Ki,[1],0.0251 nM
same,pKi,[2],< 6
same,Ki,[4],> 1000 nM
O=C(c1ccc(F)c(Cl)c1)N1CCC(F)(CNCCOc2cccc(C(F)(F)F)c2)CC1,pKi,[2],< 6
CC(=O)Nc1cccc(OCCNCC2(F)CCN(C(=O)c3ccc(Cl)c(Cl)c3)CC2)c1,pKi,[2],< 6
O=C(c1ccc(F)c(Cl)c1)N1CCC(F)(CNCCOc2cccc3cccnc23)CC1,"remaining at 2 h, 50 µM",[9],73%
CNc1ccccc1OCCNCC1(F)CCN(C(=O)c2ccc(F)c(Cl)c2)CC1,"remaining at 2 h, 50 µM",[9],54%
same,Drug uptake,[11],Active
same,pKi,[2],6.04
same,Activity,[12],Non-Toxic
same,minimal effective dose,[13],0.16 mg/kg
same,"Papp at 40 min, 100 µM",[10],6.7 ×10⁻⁶ cm/s
same,Drug uptake,[14],Active
CC(=O)Nc1cccc(OCCNCC2(F)CCN(C(=O)c3ccc(F)c(Cl)c3)CC2)c1,"remaining at 2 h, 50 µM",[9],73%
COc1cccc2c1C(=O)c1c(O)c3c(c(O)c1C2=O)C[C@@](O)(C(=O)CO)C[C@@H]3O[C@H]1C[C@H](N)[C@H](O)[C@H](C)O1 [DOXORUBICIN],CC50 at 72 h,[8],< 1000 nM
Cc1cnc(CNCC2(F)CCN(C(=O)c3ccc(F)c(Cl)c3)CC2)nc1,pKi,[2],< 6
same,EC50,[5],302 nM
O=C(c1ccc(F)c(Cl)c1)N1CCC(F)(CNCCOc2ccccc2Cl)CC1,pKi,[2],< 6
O=C(c1ccc(F)c(Cl)c1)N1CCC(F)(CNCCOc2cccc3[nH]ccc23)CC1,Drug uptake,[15],Active
same,minimal effective dose,[13],0.63 mg/kg
same,"Papp at 40 min, 100 µM",[10],4.7 ×10⁻⁶ cm/s
same,Activity,[16],Toxic
same,Drug uptake,[17],Active
same,Activity,[18],inactive
same,CC50 at 72 h,[8],> 50000 nM
